According to article PMC8920097, “Prediction of hERG inhibition of drug discovery compounds using biomimetic HPLC measurements” (ADMET & DMPK, 2021):
Read-outs that look alike come from different tables or passages of the source.

Columns and labels:
[1] = Charge character of the drugs at pH 7.4; format: physicochemical
[2] = Phospholipid binding at pH 7.4 on IAM PC.DD2 HPLC column; format: physicochemical; design: key to CHI IAM: approximates acetonitrile concentration (%) in mobile phase at elution; conditions: for log k IAM: pH 7.4, derived from CHI IAM by equation 1; for CHI IAM: pH 7.4
Procedure: The phospholipid-binding was measured using an IAM PC.DD2 column with dimensions of 100 x 4.6 mm (Regis Technologies Inc., Morton Grove, IL, USA). The gradient retention times were measured using a 50 mM ammonium acetate mobile phase with the pH adjusted to 7.4. The mobile phase flow rate was 1.5 mL/min. […] The cycle time was 6 min, plus an additional 1 min equilibration time was applied while the injector prepared for the next injection. The gradient retention times were calibrated with the acetophenone homologues for which the CHI IAM values have been established using isocratic measurements. […] The CHI Index on the IAM column (CHI IAM) approximates the acetonitrile concentration in the mobile phase when the compound elutes. […] The CHI IAM values have been converted to log k IAM values derived from the CHI IAM values using equation 1. It represents the equivalent value derived from several isocratic measurements with extrapolated log retention factors to 100 % aqueous mobile phase. The log k IAM values can be converted to log K (IAM) values and show linear relationships with the octanol/water partition coefficients.

[3] = target: human serum albumin (HSA) (Homo sapiens, UniProt P02768); assay: Protein binding on Chiralpak HSA HPLC column; conditions: pH 7.4, Chiralpak HSA
Procedure: (§1) The measurement of the biomimetic properties of the available drugs was conducted in our laboratories. Generic gradient HPLC methods were used to determine the chromatographic hydrophobicity Index (CHI) using mobile phases at three different pH values. The protein binding of the compounds was measured using immobilised human serum albumin (HSA), and alpha-1-acid-glycoprotein (AGP) stationary phases. The phospholipid-binding was measured using the immobilised artificial membrane (IAM) stationary phase. The aim was to establish relationships between the cardiotoxicity potential and the biomimetic binding properties of the drugs and to evaluate their predictive performance.

hERG channel = conditions: cited from earlier work
[4] = CHI lipophilicity by gradient reversed-phase HPLC (Gemini NX-C-18); conditions: for chromatographic logD: Gemini NX-C-18 reversed-phase HPLC column, pH 7.4; for chromatographic logP: reversed-phase HPLC, Gemini NX-C-18 column (50 x 3 mm, 5 µm)
Procedure: The Chromatographic Hydrophobicity Index (CHI) was measured using the compounds’ calibrated gradient retention times obtained from an Agilent 1100 HPLC fitted with a Gemini NX-C-18 column (Phenomenex Ltd Macclesfield, UK) with dimensions of 50 x 3 mm and 5 μm particle size. […] The mobile phase B was 100 % acetonitrile. […] An acetonitrile linear gradient was used from 0 to 100 %. […] The retention time values for a standard set of compounds listed in Table 1 were used to convert the drug retention times to CHI values.

[5] = test system: alpha-1-acid-glycoprotein (AGP); assay: Protein binding on Chiralpak AGP HPLC column; conditions: pH 7.4, Chiralpak AGP
Procedure: as §1

[6] = literature values, mean where several reported, molar

Chain of human serum albumin (HSA) (P02768 25-609): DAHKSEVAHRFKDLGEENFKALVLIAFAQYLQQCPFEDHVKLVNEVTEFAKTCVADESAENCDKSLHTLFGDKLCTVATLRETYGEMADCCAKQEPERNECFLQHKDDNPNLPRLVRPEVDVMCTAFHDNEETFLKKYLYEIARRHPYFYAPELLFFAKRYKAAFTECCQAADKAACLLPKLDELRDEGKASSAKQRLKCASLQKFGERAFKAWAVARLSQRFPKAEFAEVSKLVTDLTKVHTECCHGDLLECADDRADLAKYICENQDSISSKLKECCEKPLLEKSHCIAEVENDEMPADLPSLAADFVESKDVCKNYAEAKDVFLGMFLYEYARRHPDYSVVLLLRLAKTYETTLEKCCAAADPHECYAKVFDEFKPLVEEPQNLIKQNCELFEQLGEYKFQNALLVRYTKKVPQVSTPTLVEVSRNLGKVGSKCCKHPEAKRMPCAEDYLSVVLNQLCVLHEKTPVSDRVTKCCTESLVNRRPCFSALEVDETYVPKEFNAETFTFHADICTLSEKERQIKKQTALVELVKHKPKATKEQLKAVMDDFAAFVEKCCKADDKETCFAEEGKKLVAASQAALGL

## COc1ccc(CCN2CCC(Nc3nc4ccccc4n3Cc3ccc(F)cc3)CC2)cc1 [Astemizole]
[1]
  Charge: Basic
[2]
  log k IAM: 2.77
[3]
  log k HSA: 1.17
hERG channel
  hERG pIC50: 6.69
[4]
  chromatographic logD: 2.68
  chromatographic logP: 3.52
[5]
  log k AGP: 1.12

## CC(C)COCC(CN(Cc1ccccc1)c1ccccc1)N1CCCC1 (stereo not drawn) [Bepridil]
[1]
  Charge: Basic
[2]
  log k IAM: 3.08
[3]
  log k HSA: 1.27
hERG channel; [6]
  hERG pIC50: 6.42
[4]
  chromatographic logD: 4.4
  chromatographic logP: 6.62
[5]
  log k AGP: 1.14

## CN(C)CCC(c1ccc(Br)cc1)c1ccccn1 (stereo not drawn) [Brompheniramine]
[1]
  Charge: Basic
[2]
  log k IAM: 2.8
[3]
  log k HSA: 0.68
hERG channel; [6]
  hERG pIC50: 5.61
[4]
  chromatographic logD: 1.74
  chromatographic logP: 4.27
[5]
  log k AGP: 0.68

## CCCCN1CCCCC1C(=O)Nc1c(C)cccc1C (stereo not drawn) [Bupivacaine]
[1]
  Charge: Weak Base
[2]
  CHI IAM: 41.66
  log k IAM: 2.34
[3]
  log k HSA: -0.10
hERG channel; [6]
  hERG pIC50: 5.51
[4]
  chromatographic logD: 3.06
  chromatographic logP: 3.97
[5]
  log k AGP: 1.35

## COc1cc(N)c(Cl)cc1C(=O)NC1CCN(CCCOc2ccc(F)cc2)CC1OC (stereo not drawn) [Cisapride]
[1]
  Charge: Basic
[2]
  log k IAM: 2.35
[3]
  log k HSA: 1.11
hERG channel
  hERG pIC50: 6.88
[4]
  chromatographic logD: 2.65
  chromatographic logP: 3.17
[5]
  log k AGP: 0.84

## CC[C@H]1OC(=O)[C@H](C)[C@@H](O[C@H]2C[C@@](C)(OC)[C@@H](O)[C@H](C)O2)[C@H](C)[C@@H](O[C@@H]2O[C@H](C)C[C@H](N(C)C)[C@H]2O)[C@](C)(OC)C[C@@H](C)C(=O)[C@H](C)[C@@H](O)[C@]1(C)O [Clarithromycin]
[1]
  Charge: Basic
[2]
  CHI IAM: 49.68
  log k IAM: 2.70
[3]
  log k HSA: -0.24
hERG channel
  hERG pIC50: 4.32
[4]
  chromatographic logD: 1.9
  chromatographic logP: 4.55
[5]
  log k AGP: 0.20

## COc1cc2nc(N3CCN(C(=O)C4COc5ccccc5O4)CC3)nc(N)c2cc1OC (stereo not drawn) [Doxazosin]
[1]
  Charge: Weak Base
[2]
  log k IAM: 2.16
[3]
  log k HSA: 1.04
hERG channel; [6]
  hERG pIC50: 6.03
[4]
  chromatographic logD: 2.09
  chromatographic logP: 2.24
[5]
  log k AGP: 0.72

## O=C(NCC1CCCCN1)c1cc(OCC(F)(F)F)ccc1OCC(F)(F)F (stereo not drawn) [Flecainide]
[1]
  Charge: Basic
[2]
  log k IAM: 2.33
[3]
  log k HSA: -0.05
hERG channel; [6]
  hERG pIC50: 5.25
[4]
  chromatographic logD: 1.68
  chromatographic logP: 3.01
[5]
  log k AGP: 0.16

## CCCCC1=NC2(CCCC2)C(=O)N1Cc1ccc(-c2ccccc2-c2nnn[nH]2)cc1 [Irbesartan]
[1]
  Charge: Zwitterionic
[2]
  CHI IAM: 26.14
  log k IAM: 1.62
[3]
  log k HSA: 1.30
hERG channel; [6]
  hERG pIC50: 4.71
[4]
  chromatographic logD: 1.39
  chromatographic logP: 2
[5]
  log k AGP: 1.10
